# Assay results reported in ChEMBL document CHEMBL1157539, “Thousands of chemical starting points for antimalarial lead identification” (Nature, 2010).
# System: Plasmodium falciparum
# Assay: GSK_TCMDC: Inhibition of Plasmodium falciparum 3D7 in whole erythrocytes, using parasite LDH activity as an index of growth.
# Type: functional, organism-based
# Settings: Plasmodium falciparum, 3D7
row,SMILES,XC50 [nM]
1,CN1CCN(CCCN(Cc2cccc(-c3cccc(CNCc4ccc5c(c4)OCO5)c3)c2)C(=O)CCC2CCCC2)CC1,952
2,COc1ccc(CNc2nc(NCCc3ccccc3)c3cc(OC)c(OC)cc3n2)cc1OC,180
3,CN(C)CCCn1cncc1-c1ccc2ncnc(Nc3ccc(OCc4ccccc4)cc3)c2c1,524
4,CC[C@H]1CN2CC[C@@H]1C[C@H]2[C@H](O)c1cc(N2CCC(O)CC2)nc2ccc(OC)cc12,166
5,CCn1c(-c2nonc2N)nc2c(-c3cccc(NC(=O)Nc4ccccc4OC)c3)ncc(OCCCN)c21,1000
6,Cc1nnc2c(NC(=O)/C=C/c3ccc(OC(F)(F)F)cc3)cc3cc(Cl)ccc3n12,170
7,c1ccc2[nH]c(-c3ccc(-c4ccc(CN5CCCCC5)cc4)s3)nc2c1,742
8,COc1cc2ccccc2c(CON2C(=N)N=C(N)NC2(C)C)c1OC,46.4
9,Cc1occc1C(=O)Nc1nc(-c2ccccn2)nc2ccsc12,899
10,COc1ccc(-c2ccc(NC(=O)c3cccc(Cl)c3)cc2)cc1CNC(C)C,466
11,Cc1cccc2nc(-c3cccc(-c4ccc(NC(=O)c5cccnc5)cc4)c3)[nH]c12,594
12,COc1ccc2nccc([C@@H](O)CN3CCC(NC[C@H](Cc4ccccc4)NC(=O)OC(C)(C)C)CC3)c2c1,228
13,CN(C)CC(=O)Nc1ccc(-c2ccc3ccnc(N)c3c2)cc1,33.1
14,Cc1ccc(NC(=O)c2ccc(N3CCN(c4ccncc4)CC3)cn2)cc1F,1570
15,CCN(CC)CCNC(=O)c1ccc(Nc2ncc([N+](=O)[O-])c(Nc3ccccc3OC)n2)cc1,144
16,CC(C)c1nc(N2CCN(C(=S)NCc3ccccc3)CC2)c(C#N)c2c1COC(C)(C)C2,142
17,O=C(Cc1ccccn1)Nc1cccc(-c2cccc(-c3nc4cc(C(F)(F)F)ccc4[nH]3)c2)c1,610
18,COc1cc(NC(=O)c2sc(-c3ccc(Cl)cc3)cc2NC(=O)CN2CCCC2)ccc1OCCN1CCCC1,927
19,O=C(NC1CCN(CCN2CCc3ccccc3CC2)CC1)c1ccc(-c2ccc(C(F)(F)F)cc2)cc1,935
20,Nc1nc(N)c2c(ccc3[nH]ccc32)n1,1080
21,Nc1ccc2[nH]cc(C3CCN(CC4CCC(NC(=O)/C=C/c5ccccc5Cl)CC4)CC3)c2n1 (stereo unspecified),688
22,CCOc1cc2c(cc1S(=O)(=O)c1ccc(COc3ccc(C(F)(F)F)cc3)cc1)CCN(C)CC2,1020
23,N#Cc1ccc(CCNc2nccc(-c3cccc(CN4CCNCC4)c3)n2)cc1,1250
24,CC(C)CNCc1cccc(-c2cccc(CN(CCCN3CCN(C)CC3)C(=O)NC3CCCCC3)c2)c1,761

row,SMILES,XC50 [nM]
1,CC(C)NCc1cccc(-c2cccc(-c3nc4ccccc4[nH]3)c2)c1,799
2,COc1ccc2nccc([C@@H](O)CN3CCC(NCc4nc5ccccc5s4)CC3)c2c1,927
3,CCNc1cc(C)nc(Nc2ccc(NC(=O)c3ccc(OC)c(OC)c3)cc2)n1,1070
4,O=C(/C=C/c1ccccc1Cl)Nc1ccc(Br)c(OCCN2CCN(CCN3CCOCC3)CC2)c1,763
5,CSc1ccc2ccccc2c1CNCCCCCCNCc1c(SC)ccc2ccccc12,797
6,CCn1ccc2c(N3CCCC3=O)cc(C(=O)N[C@@H](Cc3ccccc3)[C@H](O)CNC(C)(C)CCCC(C)C)cc21,347
7,Cc1ccc2c(=O)c3cc(C)ccc3[nH]c2c1,424
8,Cc1cccc2nc(-c3ccc(-c4ccc(NC(=O)c5cncn5C)cc4)s3)[nH]c12,670
9,CCC(CC)OC(=O)C(C)c1cccc(C(=O)c2ccccc2)c1 (stereo unspecified),833
10,CC(C)c1ccc(NC(=O)c2ccc(C(=O)NCC3CCN(CC4CCCCC4)CC3)cc2)cc1,900
11,COc1ccccc1NC(=O)Nc1ccc(-c2cccc(-c3nc4ccccc4[nH]3)c2)cc1,641
12,Cc1cc(N2CCN(C3CCCCC3)CC2)nc2cccc(O)c12,701
13,Cc1nc(C)c(-c2ccc(C(=O)c3ccc(Cl)cc3)cc2)c(O)c1Cl,535
14,O=C(Nc1ccc(CN2CCOCC2)cc1)c1ccc(-c2cc(Cl)ccc2Cl)o1,613
15,Cc1cccc(C)c1C1CCN(C2CCC(NC(=O)/C=C/c3ccccc3)CC2)CC1 (stereo unspecified),581
16,CCOc1cc(O)c(-c2nc(N)ncc2-c2ccc3c(c2)OCCO3)cc1CC,729
17,O=C(Nc1cc(C(F)(F)F)cc(C(F)(F)F)c1)c1cccc([N+](=O)[O-])c1,895
18,CCCNCc1ccc(-c2ccc(CN(CCOC)C(=O)CCC(=O)c3ccc(OC)c(F)c3)cc2)nc1,683
19,COCCNCc1cccc(-c2ccc3c(Nc4ccc(Oc5cccnc5)cc4)ccnc3c2)c1,178
20,O=C(Nc1ccc([N+](=O)[O-])cc1)Nc1cc(C(F)(F)F)ccc1F,1070
21,CCCN1CCCN(Cc2cccc(NC(=O)c3ccc(-c4ccccc4)cc3)c2)CC1,1110
22,CC(C)n1c(CC2CCN(CC3CCN(C(=O)/C=C/c4ccc(Cl)c(Cl)c4)CC3)CC2)nc2ccccc21,612
23,COc1cc(CNC[C@@H](O)[C@H](Cc2ccccc2)NC(=O)c2cc(OC(C)C)cc(N3CCCCS3(=O)=O)c2)cc(OC)c1,590
24,Cc1cccc(C)c1CNc1ccnc2ccccc12,1200

row,SMILES,XC50 [nM]
1,CN(C)CCOc1cc(O)c2c(c1)OC(C)(C)C=C2c1cccs1,290
2,COc1ccc(Nc2nccc(N3CCC(NC(=O)c4cccc(C#N)c4)C3)n2)cc1 (stereo unspecified),819
3,CCOC(=O)c1ccc(N2CCN(c3cc(Cl)ccc3C)CC2)c(NC(=O)Nc2ccc(Cl)c(Cl)c2)c1,584
4,O=c1cc(N2CCCNCC2)c(Cl)nn1Cc1ccc(NS(=O)(=O)c2ccc(Oc3ccccc3)cc2)cc1,800
5,COc1ccc2nc3cc(Cl)ccc3c(NCCO)c2c1,800
6,COc1cc2c(cc1C=CC(=O)N1CCN(Cc3nc(O)c4c(C)c(C)sc4n3)CC1)OC(C)C2 (stereo unspecified),1020
7,CCCCCCn1c(Sc2ccc(C#N)c([N+](=O)[O-])c2)nnc1-c1ccccc1,772
8,COc1ccc2nc(Nc3nc4cnccc4[nH]3)sc2c1,1130
9,Cn1c(Nc2cc(C(C)(C)C)on2)nc2cc(Nc3ccnc(Nc4ccc(CS(C)(=O)=O)cc4)n3)ccc21,977
10,CC(=O)N(Cc1ccccc1-c1cccc(CNCCc2ccccc2)c1)C1CCN(Cc2ccccc2)CC1,1100
11,c1ccc(Oc2ccc(Nc3ccnc4c(-c5ccccn5)cccc34)cc2)cc1,987
12,O=C(CC1CCCC1)N(CC1CCN(Cc2ccc(C(F)(F)F)cc2)CC1)c1ccc(N2CCOCC2)c(F)c1,432
13,O=C(NCCN1CCCC1)c1ccc(-c2ccc(-c3nc4cc(C(F)(F)F)ccc4[nH]3)s2)cc1,752
14,COc1cc2nc(N3CCC(CNC(=O)c4ccc(-c5ccc(C(=O)N(C)C)cc5O)cc4)CC3)nc(N)c2cc1OC,278
15,COc1ccc2c(c1)CCCC2C(C)NCC(O)c1cccc(C(F)(F)F)c1 (stereo unspecified),345
16,O=C(CN1CCN(C(C(=O)Nc2cc(C(F)(F)F)ccc2Cl)c2ccccc2)CC1)NC1CC1 (stereo unspecified),443
17,CN1CCC(C(=O)N(Cc2ccc(-c3ccc(CNCCc4ccc(S(C)(=O)=O)cc4)cn3)cc2)Cc2cccc(F)c2)CC1,706
18,N=C(N)NN=CC(=O)Nc1cccc(C(F)(F)F)c1,1000
19,CC(C)c1ccc(CN2CCCCC(NC(=O)c3cc(-c4ccccc4F)cs3)C2)cc1 (stereo unspecified),672
20,CCCCC(=O)Nc1nonc1-c1ccc(OCC)c(OCC)c1,912
21,Cc1nc(-c2cccc(C(=O)NC3CCC(CCN4CCc5ccc(-c6cccnc6)cc5CC4)CC3)c2)no1 (stereo unspecified),762
22,CC(N)(Cc1ccc(O)cc1)c1nnn[nH]1 (stereo unspecified),969
23,O=C(Nc1ccc(Cl)c(Cl)c1)Nc1ccc(F)c([N+](=O)[O-])c1,696
24,Cc1nn(-c2ccnc3cc(Cl)ccc23)c(C)c1C(=O)NCc1cc(Cl)cc(Cl)c1,869

row,SMILES,XC50 [nM]
1,ON=C1CCc2cc(-c3cc(-c4ccc(OC5CCNCC5)cc4)oc3-c3ccncc3)ccc21,157
2,Cn1cc(Br)c(-c2cccc(Nc3ccnc4cc(-c5nccs5)ccc34)c2)n1,979
3,O=C(/C=C/c1ccc(Cl)c(Cl)c1)NCCCCN1CCCN(C(=O)Nc2ccc(F)c(Cl)c2)CC1,1510
4,c1ccc2c(Nc3ccc(OCCOCCOc4ccc(Nc5c6ccccc6nc6ccccc56)cc4)cc3)c3ccccc3nc2c1,284
5,CCCN(CCC)C(=O)c1cc(C(=O)N[C@@H](Cc2ccccc2)[C@H](O)CNCc2cccc(C(F)(F)F)c2)cc(N2CCCCS2(=O)=O)c1,876
6,C[C@H](Cc1ccc(OCCCCCCOc2ccc(C[C@@H](C)NC(=O)[C@H](O)c3cccc(Cl)c3)cc2)cc1)NC[C@H](O)c1cccc(Cl)c1,381
7,CN1CCN(C(=O)CN2CCC3(CCC2=O)NC(=O)c2ccccc2O3)CC1 (stereo unspecified),213
8,Cc1ccccc1CN1CCCN(Cc2ccc(C(=O)Nc3ccc(Cl)cc3)cc2)CC1,944
9,O=C(c1cccc(-c2noc(C(F)(F)F)n2)c1)N1CCN(c2ccncc2)CC1,233
10,CCc1cn(C)c2c(N3CCCC3=O)cc(C(=O)N[C@@H](Cc3ccccc3)[C@H](O)CNC(C)(C)CCCC(C)C)cc12,487
11,COc1ccc2nccc([C@@H](O)CN3CCC(NC(=O)C(=O)c4c[nH]c5c(C)cccc45)CC3)c2c1,307
12,O=C(Nc1ccccc1-c1nc2ccccc2s1)C(Cl)(Cl)Cl,638
13,O=C(/C=C/c1ccc(Cl)c(Cl)c1)NCCCCCN1CCC(NC(=O)Nc2ccc3c(c2)OCO3)CC1,713
14,Cc1cc(CNC(c2ccccc2)C2CCC2)cc(C)c1O (stereo unspecified),890
15,O=C(Nc1cc(F)cc(F)c1)N1CCOC(CCN2CCC(c3ccccc3)CC2)(c2ccc(Cl)c(Cl)c2)C1 (stereo unspecified),466
16,Clc1ccc2c(N3CCCNCC3)ccnc2c1,482
17,Cc1noc(C)c1-c1ccc2c(Nc3ccccc3C(C)(C)C)c(C(=O)NCc3ccc(C(F)(F)F)cc3)cnc2c1,762
18,Nc1ncc(-c2cc3ccccc3o2)c(N)n1,1410
19,Cc1n[nH]c2cc(Nc3ccnc(Nc4ccc(CN5CCOCC5)cc4)n3)ccc12,950
20,CC(=O)Nc1ccc(S(=O)(=O)NC2=NC(=N)N(OCc3ccc(Cl)c(Cl)c3)C(C)(C)N2)cc1,33.9
21,COc1ccc2nccc([C@@H](O)CN3CCC(NC(=O)C(=Cc4ccc(C#N)cc4)c4ccc(-c5ccccc5)cc4)CC3)c2c1,739
22,CCC(C)c1cccc(C(C)CC)c1OCCCON1C(N)=NC(N)=NC1(C)C (stereo unspecified),20
23,Cc1cc(NCC(c2ccccc2)c2ccccc2)nc(NCc2ccc(C(F)(F)F)cc2)n1,246
24,COc1ccc(-c2ccc(NC(=O)c3ccc(C#N)cc3)c(F)c2)cc1CN(C)CCN(C)C,974
